Series [1] is described as follows: Functional stability in human plasma read out by 12G5 competition. To be noted: for half-life t1/2 in plasma / 12G5-competing activity after incubation in plasma / ability to block 12G5 binding after incubation in plasma / half-life at 20 µM: 37 °C; for 12G5-competing activity after incubation in plasma: 24 h (AMD3100 also 48 h); for ability to block 12G5 binding after incubation in plasma: plasma of the individual donor, up to 24 h; for half-life at 20 µM: human, plasma, read-out: half-life t1/2 in plasma. The class given is in vitro ADME. The protocol:
The t = 0 sample was immediately taken and stored at − 80 °C. Plasma/compound or blood/compound mixture was then transferred to 37 °C and shook at 350 rpm. At given time points samples were taken and stored at − 80 °C. For measuring the functional activity of the plasma/peptide samples, the mixtures were thawed and serially diluted in ice cold PBS (starting with 100% sample). 12G5-APC antibody competition was then performed as described before. Note, that during the competition process the samples are 1:1 diluted with the antibody and the highest plasma concentration on cells was 50%. For blood/peptide functional stability, samples were thawed and centrifuged at 14,000 rpm for 3 min at 4 °C to remove cells and debris. The supernatant was then serially diluted in PBS (starting with 100% sample) and 12G5-antibody competition assay was performed. […] Afterwards cells were washed again and analyzed for bound antibody.
(§1) Statistical analysis was performed in GraphPad Prism (version 8.3.0). IC50 and IC90 curves and the areas under the curves (AUC) were determined by nonlinear regression.

A short description of the next series: in vitro. The series is classed as in vitro ADME, human. The conditions noted are these: for half-life at 20 µM: 20 µM in whole EDTA blood of an individual donor, 37 °C, read-out: half-life t1/2 in blood. The protocol:
Compounds were 150-fold diluted in human plasma or whole human blood to reach final concentrations of 20 µM. The t = 0 sample was immediately taken and stored at − 80 °C. Plasma/compound or blood/compound mixture was then transferred to 37 °C and shook at 350 rpm. At given time points samples were taken and stored at − 80 °C. For measuring the functional activity of the plasma/peptide samples, the mixtures were thawed and serially diluted in ice cold PBS (starting with 100% sample). 12G5-APC antibody competition was then performed as described before. Note, that during the competition process the samples are 1:1 diluted with the antibody and the highest plasma concentration on cells was 50%. For blood/peptide functional stability, samples were thawed and centrifuged at 14,000 rpm for 3 min at 4 °C to remove cells and debris. The supernatant was then serially diluted in PBS (starting with 100% sample) and 12G5-antibody competition assay was performed. After the 2 h incubation, the cells were washed by centrifugation (1.300 rpm, 4 °C) and 50 µL of 1-step-Fix/Lyse solution (Thermo Fisher #00-5333-54) was added for 15 min at room temperature. Afterwards cells were washed again and analyzed for bound antibody.
Statistical analysis was performed in GraphPad Prism (version 8.3.0). IC50 and IC90 curves and the areas under the curves (AUC) were determined by nonlinear regression. For half-life calculations, the IC50 values for each time point as well as the AUCs were analyzed and normalized relative to t = 0. Activities were then determined ((IC50 (t = 0) / IC50 (t)) × 100) for each time point and half-lives determined by a One-Phase-Decay model.

In series [2] the test system is CXCR4-tropic HIV-1. The conditions noted are these: TZM-bl cells; for IC50: read-out: IC50 HIV-1, infection rate after 3 days, mean ± SEM of 3 assays.
The subject of series [3] is SupT1 cells. The conditions noted are these: read-out: IC50 Migration.
For series [4], the system named is SupT1 cells. Briefly: cells. The conditions noted are these: Homo sapiens, SUP-T1, 4 h, read-out: IC50 Migration.
The conditions of series [5]: administered AMD3100; cited from earlier work.
The test system of series [6] is CXCR4-tropic HIV-1. Briefly: microbe, parasite or virus in culture. The conditions noted are these: Human immunodeficiency virus 1, TZM-bl, 72 h, read-out: IC50 HIV-1.
For a further series, the target named is CXCR4 (Homo sapiens, UniProt P61073). Briefly: 12G5 antibody competition assay on SupT1 cells. The class given is binding. To be noted: for IC50: APC-labelled 12G5, 2 h at 4 °C, mean ± SEM of 3 assays. On the procedure: Compounds were serially diluted in ice cold PBS and 12G5-APC antibody was diluted in cold PBS containing 1% FCS. […] Plates were incubated at 4 °C in the dark for 2 h. Afterwards cells were washed twice by centrifugation with PBS containing 1% FCS and fixed with 2% paraformaldehyde (PFA). During all pipetting steps, plates were kept cool by using a cooling pad. Antibody binding was analyzed by flow cytometry (FACS CytoFLEX; Beckman Coulter) by determination of the mean fluorescence intensity (MFI) of at least 5.000 cells (50.000 cells per well) or 1.000 cells (5.000 cells per well).
Ki calculation3 Ki=IC50/1+L/Kd
For Ki = inhibitory constant; IC50 = half maximal inhibition for 12G5 binding; [L] = 12G5 concentration; Kd = dissociation constant of 12G5.
as §1

In series [7] the target is C-X-C chemokine receptor type 4 (CXCR4) (human (endogenous in SupT1)) (UniProt P61073).
Series [8] deals with T1, C-X-C chemokine receptor type 4 (CXCR4) (human (endogenous in SupT1), UniProt P61073 1-352). Briefly: cell-based or functional assay.
The target of series [9] is T1, C-X-C chemokine receptor type 4 (CXCR4). Briefly: flow cytometry on cells; competition with APC-labelled anti-CXCR4 antibody 12G5 (0.245 nM final) on SupT1 cells (5000 cells per well for Ki, or 50,000); compounds in PBS, antibody in PBS with 1% FCS; 2 h at 4 °C in the dark; Ki calculated from IC50 by the Cheng-Prusoff transformation with the Kd of 12G5 (151.5 pM). To be noted: one partner purified.

The target in series [10] is T2, C-X-C chemokine receptor type 4 (CXCR4) (human (endogenous in SupT1)), P61073.
T2 chain: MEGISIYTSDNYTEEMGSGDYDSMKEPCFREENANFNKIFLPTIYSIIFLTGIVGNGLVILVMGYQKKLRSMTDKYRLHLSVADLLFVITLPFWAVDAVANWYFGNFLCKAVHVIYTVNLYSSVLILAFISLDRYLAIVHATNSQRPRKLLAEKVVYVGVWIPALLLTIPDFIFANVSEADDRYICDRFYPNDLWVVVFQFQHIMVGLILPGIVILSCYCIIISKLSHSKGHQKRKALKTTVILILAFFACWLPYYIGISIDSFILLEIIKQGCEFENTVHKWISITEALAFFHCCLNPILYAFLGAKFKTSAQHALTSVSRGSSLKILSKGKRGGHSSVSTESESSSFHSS

For series [11], the target named is T2, C-X-C chemokine receptor type 4 (CXCR4) …. Briefly: flow cytometry on cells; competition with APC-labelled anti-CXCR4 antibody 12G5 (0.245 nM final) on SupT1 cells (5000 cells per well for Ki, or 50,000); compounds in PBS, antibody in PBS with 1% FCS; 2 h at 4 °C in the dark; Ki calculated from IC50 by the Cheng-Prusoff transformation with the Kd of 12G5 (151.5 pM).

[12] abbreviates: 20 µM in plasma of an individual donor.
The mark [13] stands for this setting: 20 µM in pooled human plasma, Fig. 4a.

The source of these data is article PMC7525492, “Microtiter plate-based antibody-competition assay to determine binding affinities and plasma/blood stability of CXCR4 ligands” (Scientific Reports, 2020).

Structures can show the parent of a compound that is named as a salt. Where two headings read alike, the source gives them in different places. Bridge positions count the residues as written; N and C are the ends. Square brackets hold non-standard residues; d marks the D form. Ends that are not written are not given here. Peptide text beside a SMILES is read from it. I, II: the chains in the order shown. 2Nal = N[C@@H](Cc1ccc2ccccc2c1)C(=O)O; Lys(iPr) = CC(C)NCCCC[C@H](N)C(=O)O

With `CC1(C)CN2C(CSC(=NC3CCCCC3)NC3CCCCC3)=CSC2=N1` [IT1t], the “half-life t1/2 in plasma” value in series [1] (setting [12]) was “ca. 480 min”; in series [1] (setting [13]), < 24 h. Also, in [1] (20 µM in pooled human plasma), the “12G5-competing activity after incubation in plasma” value is recorded as “remained fully active”. The “ability to block 12G5 binding after incubation in plasma” value in series [1] is “moderately impaired”. Also, in the series “in vitro”, the “ability to block 12G5 binding after incubation in whole blood” value is “moderately impaired”. Further, the IC50 in the series with CXCR4-tropic HIV-1 [2] came out at 5 ± 0.9 nM; in the series on SupT1 cells [3], 230 ± 20 nM.
For the molecule `c1cc(CN2CCCNCCNCCCNCC2)ccc1CN1CCCNCCNCCCNCC1` [AMD3100, AMD3100 octahydrochloride hydrate], in series [1] (20 µM in pooled human plasma), the “12G5-competing activity after incubation in plasma” value was “remained fully active”. For the same molecule, the half-life at 20 µM is > 24 h in series [1] (setting [12]); > 48 h in series [1] (setting [13]); > 24 h in series [1] (20 µM in pooled human plasma, Fig. S5a, no unit at the value, time axis in min, estimated by eye); > 24 h in “in vitro” (human). In addition, the “ability to block 12G5 binding after incubation in plasma” value in [1] is “remained fully active”. For the same molecule, the “ability to block 12G5 binding after incubation in whole blood” value in “in vitro” is on record as “remained fully active”. Moreover, the IC50 is 60 ± 13 nM in the series on SupT1 cells [4] and 36 ± 6 nM in the series with CXCR4-tropic HIV-1 [6]. Further, in series [5], the “fraction bound to plasma proteins” value is 58%.
One may read the Ki as a measure of affinity in units of concentration, obtained from inhibition or displacement. For `CC(C)NCCCC[C@H](NC(=O)[C@H]1CCC(=O)N[C@@H](Cc2ccccc2)C(=O)N[C@@H](Cc2ccc(O)cc2)C(=O)N[C@@H](CCCCNC(C)C)C(=O)N[C@H](CCCNC(=N)N)C(=O)N[C@@H](Cc2ccc3ccccc3c2)C(=O)NCC(=O)N1)C(N)=O` [LY2510924] (FY[Lys(iPr)][dR][2Nal]G[dE][Lys(iPr)]-NH2; lactam N-7), the IC50 on CXCR4 (SupT1 cells) came out at 151 ± 78 nM; with CXCR4-tropic HIV-1 [2] it was 8 ± 0.8 nM; with SupT1 cells [3] (100 ng/mL CXCL12, 4 h, mean ± SEM of 3 assays), 66 ± 8 nM. Also, at CXCR4 (calculated from IC50 12G5 by Cheng-Prusoff, Kd of 12G5 151.5 pM), the Ki is 58 ± 30 nM.
As for `CC[C@H](C)[C@H](N)C(=O)N[C@H](C(=O)N[C@@H](CCCNC(=N)N)C(=O)N[C@@H](Cc1c[nH]c2ccccc12)C(=O)N[C@@H](CO)C(=O)N[C@@H](CCCCN)C(=O)N[C@@H](CCCCN)C(=O)N[C@H](C(=O)N1CCC[C@H]1C(=O)N[C@@H](CSSC[C@H](NC(=O)[C@@H]1CCCN1C(=O)[C@@H](NC(=O)[C@H](CCCCN)NC(=O)[C@H](CCCCN)NC(=O)[C@H](CO)NC(=O)[C@H](Cc1c[nH]c2ccccc12)NC(=O)[C@H](CCCNC(=N)N)NC(=O)[C@@H](NC(=O)[C@@H](N)[C@@H](C)CC)C(C)C)C(C)C)C(=O)N[C@H](C(=O)N[C@@H](CO)C(=O)O)C(C)C)C(=O)N[C@H](C(=O)N[C@@H](CO)C(=O)O)C(C)C)C(C)C)C(C)C` [EPI-X4 WSC02x2] (I: H-IVRWSKKVPCVS-OH / II: H-IVRWSKKVPCVS-OH; disulfide I:10-II:10; N-terminus and C-terminus assumed), the half-life at 20 µM in series [1] (setting [12]) is ~3 h; in [1] (20 µM in pooled human plasma (6 donors), from IC50 relative to t = 0, one-phase decay), 3.22 h; in [1] (human plasma, value in discussion), > 3 h; in the series “in vitro” (human), 1.33 h. In addition, in series [1] (pooled human plasma, ratio of t1/2), the “fold more stable than WSC02 in plasma” value was determined as 19 fold. In addition, in “in vitro” (human, plasma), the “stability in blood compared to plasma” value is “less stable in blood compared to plasma”.
Take `NCCCCN(Cc1nc2ccccc2[nH]1)[C@H]1CCCc2cccnc21` [AMD070]: the figures for the IC50 with SupT1 cells [4] and with CXCR4-tropic HIV-1 [6] were 152 ± 3 nM and 23 ± 4 nM, respectively.
In turn, “EPI-X4 (Endogenous Peptide Inhibitor of CXCR4)” showed an IC50 of inhibition of infection of TZM-bl reporter cells by CXCR4-tropic HIV-1 (NL4-3), β-galactosidase assay in series [7] of 31400 nM.
Take `c1cnc(NCc2ccc(CNc3ncccn3)cc2)nc1` [MSX-122]: the “effect on 12G5 binding” value on CXCR4 (SupT1 cells) was “did not interfere with 12G5 binding”. Further, the IC50 at CXCR4 (SupT1 cells) is > 100000 nM; in the series with CXCR4-tropic HIV-1 [6] it was > 10000 nM. Besides, in the series with CXCR4-tropic HIV-1 [2], the “effect on CXCR4-tropic HIV-1 infection” value is on record as “not affecting”.

B1: EPI-X4 WSC02x2 (peptide)
chain: IVRWSKKVPCVS
modifications: also: homodimer via intermolecular disulfide, disulfide at 10, other end not in the chain
In the case of B1, in [8], the “IC50 of inhibition of SupT1 cell migration towards CXCL12 (100 ng/mL, transwell); the pair antagonized is CXCL12 with CXCR4” value was 2670 nM and the “IC50 of inhibition of infection of TZM-bl reporter cells by CXCR4-tropic HIV-1 (NL4-3), β-galactosidase assay” value worked out at 254 nM. In series [9], the IC50 was 182 nM and the Ki is 69 ± 12 nM.

B2: EPI-X4 WSC02 (peptide)
chain: IVRWSKKVPCVS
modifications: not checked
In series [10], B2 registered an IC50 of inhibition of SupT1 cell migration towards CXCL12 (100 ng/mL, transwell); the pair antagonized is CXCL12 with CXCR4 of 15800 nM and an IC50 of inhibition of infection of TZM-bl reporter cells by CXCR4-tropic HIV-1 (NL4-3), β-galactosidase assay of 257 nM. Besides, in series [11], the IC50 is 290 nM and the Ki is 111 nM.
